We go through one molecule from patent US10105362B2, “Anti-tumor use of anagrelide and derivatives thereof” (SHANGHAI INSTITUTE OF MATERIA MEDICA, CHINESE ACADEMY OF …, priority 2013, dated 2018).

Where only a bound is given, the exact number is not on record here.

The test system of data set [1] is DU145 cells. Description: MTT colorimetry, tumor cell growth/viability. Format: cell-based, human. The note with it: 50 μM, 72 hours. On the procedure: (§1) Logarithmic growth phase cells were seeded in 96-well culture plate in appropriate density (100 μl in each well). After overnight cultivation, different concentrations of drugs were added and treated for 72 h, while three wells were set for each concentration. After treatment was completed, 20 μl/well of MTT (5 mg/ml in PBS) was added to each well and affected for 3-5 hours, the medium was suctioned out completely and 100 ul/well of DMSO was added, oscillated on decolorization shaker in dark place for 10 minutes until the Blue purple crystals formazan (formazan) was completely dissolved, the OD (Optical Density) value was detected with a microplate reader (detection wavelength: […]; reference wavelength: 650 nM). In blank group, culture medium only added without cells, and in control group, DMSO in the same volume as that for drug was added. Cell viability was calculated=(OD value of experimental group−OD value of control group)/(OD value of control group−OD value of blank group). Tumor cells from different tissue source were selected, and the concentration of Anagrelide was 1 μM and 50 μM, OD value was MTT detected after administrated for 72 hours, and the cell viability was calculated using cell viability=(administered group OD-blank group OD)/(control group OD-blank group OD)*100%, and was mapped by using GraphPadPrism 4 software.

The subject of data set [2] is MDA-MB-231 cells. In words: MTT colorimetry, tumor cell growth/viability. Format: cell-based, human. The note with it: 50 μM, 72 hours. On the procedure: as §1
In data set [3] the test system is MDA-MB-468 cells. In words: MTT colorimetry, tumor cell growth/viability. The class given is cell-based, human. The following applies: 50 μM, 72 hours. As to the method: as §1
The subject of data set [4] is U87-MG cells. In words: MTT colorimetry, tumor cell growth/viability. The note with it: 50 μM, 72 hours. Format: cell-based, human. As to the method: as §1
In data set [5] the test system is H1299 cells. Description: MTT colorimetry, tumor cell growth/viability. Format: cell-based, human. The following applies: 50 μM, 72 hours. As to the method:
as §1

For data set [6], the system named is Wi38 cells. Description: MTT colorimetry, tumor cell growth/viability. Format: cell-based, human. The following applies: 50 μM, 72 hours. As to the method:
as §1

Data set [7] has as its system phosphodiesterase (PDE). The note with it: subsequent studies; cited from earlier work.
For data set [8] the following is noted: animal experiments, Fleming and Buyniski 1979; cited from earlier work.
The nature of data set [9]: Blood routine test of tumor-bearing nude mice (WBC, RBC, Hb, PLT). The note with it: day 21, vs vehicle control. The class given is in vivo, BALB/c naked mouse. On the procedure:
(§2) Under aseptic conditions, tumor cells in the proliferation stage were taken. The cell concentration was adjusted after digestion, seeded at right armpit of nude mice, and the inoculated volume was 0.1 mL. Tumor diameter was measured with vernier caliper, after the tumor was grown to 200-300 mm^3, the tumor-bearing mice were selected, and randomly divided into 3 groups (n=4) according to the size of the tumors: negative control group, Anagrelide I (10 mg/kg), Anagrelide II (30 mg/kg). Each group was intragastric administrated, the day of administration was recorded as d1, the negative control group was given same amount of vehicle, and then the long and short diameters of tumor were measured twice a week, while the body weights of mice were weighed. At the 21th day of the administration, the animals were sacrificed and the tumor was dissected and weighed. Before the animals were sacrificed, eyeball was taken for blood sample, the number of white blood cell (WBC), red blood cell (RBC), concentration of hemoglobin (Hb) and number of platelet (PLT) were measured.

Data set [10] is described as follows: Body weight of tumor-bearing nude mice. Format: in vivo, BALB/c naked mouse. The note with it: 21 days. As to the method:
as §2

The subject of data set [11] is tumor cells. Description: Growth inhibition of tumor cells (summary statement). Format: cell-based. The note with it: 10 nM/L.
Data set [12] has as its system H4 cells. In words: MTT colorimetry, tumor cell growth/viability. Format: cell-based, human. The following applies: 1 μM, 72 hours. On the procedure:
as §1, with “software. IC50 values on this seven cell lines of Anagrelide were detect by MTT method, and all of them are less than 100 nM (Table 2).” for “software.”

For data set [13], the system named is HeLa cells. Description: MTT colorimetry, tumor cell growth/viability. The class given is cell-based, human. The note with it: 1 μM, 72 hours. As to the method: as §1, with “software. IC50 values on this seven cell lines of Anagrelide were detect by MTT method, and all of them are less than 100 nM (Table 2).” for “software.”
Data set [14] deals with Bel7404 cells. In words: MTT colorimetry, tumor cell growth/viability. The class given is cell-based, human. The note with it: 1 μM, 72 hours. As to the method:
as §1, with “software. IC50 values on this seven cell lines of Anagrelide were detect by MTT method, and all of them are less than 100 nM (Table 2).” for “software.”

In data set [15] the test system is SW1116 cells. In words: MTT colorimetry, tumor cell growth/viability. Format: cell-based, human. The note with it: 1 μM, 72 hours. As to the method:
as §1, with “software. IC50 values on this seven cell lines of Anagrelide were detect by MTT method, and all of them are less than 100 nM (Table 2).” for “software.”

Data set [16] concerns FHCC98 cells. In words: MTT colorimetry, tumor cell growth/viability. Format: cell-based, human. The following applies: 1 μM, 72 hours. On the procedure:
as §1, with “software. IC50 values on this seven cell lines of Anagrelide were detect by MTT method, and all of them are less than 100 nM (Table 2).” for “software.”

Data set [17] deals with A498 cells. In words: MTT colorimetry, tumor cell growth/viability. The note with it: for IC50: A498, MTT, 72 h. Format: cell-based, human. On the procedure: as §1, with “software. IC50 values on this seven cell lines of Anagrelide were detect by MTT method, and all of them are less than 100 nM (Table 2).” for “software.”
Data set [18] relates to SMMC7721 cells. Description: MTT colorimetry, tumor cell growth/viability. The note with it: 1 μM, 72 hours. The class given is cell-based, human. On the procedure: as §1, with “software. IC50 values on this seven cell lines of Anagrelide were detect by MTT method, and all of them are less than 100 nM (Table 2).” for “software.”
Data set [19] deals with HeLa cells. In words: Cell migration detection via scratch experiment. Format: cell-based, human. The note with it: 100 nM, serum-free medium, up to 24 hours. As to the method: The bottom of the six-well plate was uniformly marked with horizontal strips by marker, and then the logarithmic growth phase cells were seeded in the plate by 120×10^4 /mL concentration to make the cells evenly cover the six-well plate, and cells were incubated under 37° C. overnight. Fresh serum-free medium was changed, after the cells were starved for 10 hours, the bottom of six-well plate was scratched perpendicularly to horizontal strips, and washed three times with serum-free medium. After the suspended cells were rinsed, serum-free medium was added and photographed in 0, 2, 6, 12, and 24 hours. Image J was used to calculate the moving distance of the cells. By Scratching assay (HeLa cells were used as an example), the effect of Anagrelide on tumor cell migration was detected.

Turning to `O=C1CN2Cc3c(ccc(Cl)c3Cl)N=C2N1` [Anagrelide, 6,7-dichloro-1,5-dihydro-imidazo [2,1-b] quinazolin-2 (3H)-one], the “inhibition of cell growth” value in [1], in data set [2], in data set [3], in data set [4], in [5] and in data set [6] was “inhibited their growth” in each case. The “inhibition of cell growth” value is “significantly inhibited growth” in data set [12]; “significantly inhibited growth” in data set [13]; “significantly inhibited growth” in data set [14]; “significantly inhibited growth” in data set [15]; “significantly inhibited growth” in data set [16]; “significantly inhibited growth” in data set [17] (1 μM, 72 hours, MTT, A498). The “inhibition of cell growth” value in [18] is given as “significantly inhibited growth”. In addition, the “phosphodiesterase (PDE) activity” value in data set [7] is on record as “capable of inhibiting phosphodiesterase (PDE) activity”. Further, the anti-thrombotic function entry in data set [8] was “significant anti-thrombotic function”. The “blood routine test index (WBC, RBC, Hb, PLT)” value in data set [9] (10 mg/kg intragastric) and in data set [9] (30 mg/kg intragastric) was “didn't show any significant decrease” in each case. The “effect on animal body weight” value in [10] (10 mg/kg intragastric) and in data set [10] (30 mg/kg intragastric) was “no significant difference from the negative control group” each time. Also, in data set [11], the “growth inhibition of tumor cells” value is recorded as “obviously inhibit the growth of tumor cells”. Besides, the IC50 in [17] was 53 nM; in data set [17] (Homo sapiens, A498, 72 h), under 100 nM. Moreover, the “healing speed of scratch (cell migration)” value in data set [19] is reported as “significantly inhibit the healing speed of scratch”.

A word on the IC50: it is the concentration that gives 50% inhibition.
